Values of other authors as cited in patent US8815929B2, “Method and therapeutic/cosmetic topical compositions for the treatment of rosacea and skin erythema using α1-adrenoceptor agonists” (Allergan, Inc., priority 2004, dated 2014).
Where a name gives a salt, the structure may show the parent alone.

Key:
[1] = dog, cat, rabbit or mouse; dosages close to those used in man; manufacturers' report
[2] = rabbits; injection subcutaneously
[3] = retrospective study in man
[4] = used intranasally and ophthalmically for decades

Cc1cc(C(C)(C)C)c(O)c(C)c1CC1=NCCN1 [oxymetazoline, 2-(3-Hydroxy-2,6-dimethyl-4-t-butylbenzyl)-2-imidazoline hydrochloride]
organ damage or general toxicity [1]: no significant organ damage or general toxicity
drug related abnormalities or effects on the offspring [2]: no drug related abnormalities or effects on the offspring were found
association between the drug and congenital disorders [3]: no association was found
systemic side effects [4]: has not been reported to effect any systemic side effects
